The subject of the data set is A549 cells. Particulars: human.

Our source for the IC50 values is article PMC11278161 (Marine Drugs, 2024).

*1 amine or outer side, *2 acyl side, *3 side chain or, on linkers, in order; H or OH if unused. Where a SMILES comes first, the peptide text is derived from it. Bridges are numbered along the chain shown (N, C = ends). X1 = CC[C@@]1(OC(=O)CCC(=O)NCCOCCOCCOCCn2cc(COc3cc(C[*:1])cc(C[*:2])c3)nn2)C(=O)OCc2c1cc1n(c2=O)Cc2cc3ccccc3nc2-1; X2 = CC[C@@]1(OC(=O)Cn2cc(COc3cc(C[*:1])cc(C[*:2])c3)nn2)C(=O)OCc2c1cc1n(c2=O)Cc2cc3ccccc3nc2-1

The term IC50 denotes the concentration at which inhibition is half-maximal.

As to `CC[C@H](C)[C@@H]1NC(=O)[C@H](CC(N)=O)NC(=O)[C@@H]2CCCN2C(=O)[C@H](CC(N)=O)NC(=O)[C@H](CC(N)=O)NC(=O)[C@H](C(C)C)NC(=O)[C@H](CCCNC(=N)N)NC(=O)[C@@H]2CSSC[C@H](NC(=O)CNC(=O)[C@@H](N)CO)C(=O)N[C@@H](CSCc3cc(cc(OCc4cn(CCOCCOCCOCCNC(=O)CCC(=O)O[C@]5(CC)C(=O)OCc6c5cc5n(c6=O)Cc6cc7ccccc7nc6-5)nn4)c3)CSC[C@@H](C(N)=O)NC1=O)C(=O)N[C@@H](CO)C(=O)N[C@@H](CC(N)=O)C(=O)N1CCC[C@H]1C(=O)N[C@@H](C)C(=O)N2` [LsIA[2,4]-9] (H-SGCCSNPACRVNNPNIC-NH2; disulfide 3-9; linker 4-17 via X1), the IC50 is 338 nM. In the case of `CC[C@H](C)[C@@H]1NC(=O)[C@H](CC(N)=O)NC(=O)[C@@H]2CCCN2C(=O)[C@H](CC(N)=O)NC(=O)[C@H](CC(N)=O)NC(=O)[C@H](C(C)C)NC(=O)[C@H](CCCNC(=N)N)NC(=O)[C@@H]2CSSC[C@H](NC(=O)CNC(=O)[C@@H](N)CO)C(=O)N[C@@H](CSCc3cc(cc(OCc4cn(CC(=O)O[C@]5(CC)C(=O)OCc6c5cc5n(c6=O)Cc6cc7ccccc7nc6-5)nn4)c3)CSC[C@@H](C(N)=O)NC1=O)C(=O)N[C@@H](CO)C(=O)N[C@@H](CC(N)=O)C(=O)N1CCC[C@H]1C(=O)N[C@@H](C)C(=O)N2` [LsIA[2,4]-8] (H-SGCCSNPACRVNNPNIC-NH2; disulfide 3-9; linker 4-17 via X2) it was 216 nM.
